Results as given in patent US8697632B2 (priority 2008, dated 2014).
pIC50: −log10 of the molar value. Values joined by “and” are separate entries in the source; they are usually repeats but may differ in a detail not shown here. Equal entries are not always repeated. Peptide text beside a SMILES is read from it.

What was measured:
[1] = molecular target: T1, insulin receptor (Homo sapiens, UniProt P06213); experiment: Insulin receptor competition binding assay (scintillation proximity); details: Table 9; for Ratio: IGF-1 receptor vs insulin receptor binding
T1 construct: expressed in transfected cells; plasma membrane fragments
T1 sequence (P06213 28-758 limits assumed): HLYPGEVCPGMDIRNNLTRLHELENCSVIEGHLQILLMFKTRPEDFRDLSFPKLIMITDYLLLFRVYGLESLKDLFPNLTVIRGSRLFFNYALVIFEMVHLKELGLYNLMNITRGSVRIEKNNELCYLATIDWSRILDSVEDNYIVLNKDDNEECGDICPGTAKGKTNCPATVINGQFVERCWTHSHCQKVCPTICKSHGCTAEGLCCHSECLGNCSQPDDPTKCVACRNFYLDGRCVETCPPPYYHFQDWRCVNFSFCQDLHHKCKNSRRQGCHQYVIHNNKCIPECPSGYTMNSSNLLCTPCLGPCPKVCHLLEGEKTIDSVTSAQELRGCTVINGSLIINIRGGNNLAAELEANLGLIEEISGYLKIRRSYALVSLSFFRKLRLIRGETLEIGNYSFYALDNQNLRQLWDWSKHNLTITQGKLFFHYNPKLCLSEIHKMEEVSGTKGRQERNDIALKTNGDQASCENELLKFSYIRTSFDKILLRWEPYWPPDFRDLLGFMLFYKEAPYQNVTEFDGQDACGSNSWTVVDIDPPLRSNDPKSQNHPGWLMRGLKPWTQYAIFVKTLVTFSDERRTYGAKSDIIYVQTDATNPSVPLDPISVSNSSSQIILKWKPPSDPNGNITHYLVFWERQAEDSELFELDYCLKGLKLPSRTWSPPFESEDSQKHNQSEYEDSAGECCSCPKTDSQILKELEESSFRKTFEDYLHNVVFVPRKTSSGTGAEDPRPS
T1 sequence (P06213 763-1382 limits assumed): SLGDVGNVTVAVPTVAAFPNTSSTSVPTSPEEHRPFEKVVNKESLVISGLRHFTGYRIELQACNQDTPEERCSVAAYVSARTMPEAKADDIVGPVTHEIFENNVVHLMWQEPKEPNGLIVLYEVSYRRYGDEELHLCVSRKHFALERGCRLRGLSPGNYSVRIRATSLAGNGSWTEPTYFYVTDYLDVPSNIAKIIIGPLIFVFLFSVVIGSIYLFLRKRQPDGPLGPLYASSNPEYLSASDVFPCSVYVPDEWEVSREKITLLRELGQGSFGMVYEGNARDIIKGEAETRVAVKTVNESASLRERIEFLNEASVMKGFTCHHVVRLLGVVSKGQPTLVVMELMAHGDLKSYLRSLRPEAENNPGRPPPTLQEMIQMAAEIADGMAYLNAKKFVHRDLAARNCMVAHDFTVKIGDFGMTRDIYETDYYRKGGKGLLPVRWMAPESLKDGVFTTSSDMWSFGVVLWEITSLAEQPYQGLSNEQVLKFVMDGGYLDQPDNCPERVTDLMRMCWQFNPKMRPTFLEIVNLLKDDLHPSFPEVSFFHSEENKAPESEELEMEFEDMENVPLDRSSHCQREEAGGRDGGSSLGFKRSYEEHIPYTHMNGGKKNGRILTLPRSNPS

[2] = Dipeptide cleavage from prodrug forms of IGF1 peptides in PBS; assay type: physicochemical; details: pH 7.4 at 37° C.
Procedure: The rate of cleavage was determined for the respective propeptides. The concentrations of the propeptides and the model parent peptide were determined by their respective peak areas. The first order dissociation rate constants of the prodrugs were determined by plotting the logarithm of the concentration of the prodrug at various time intervals. The slope of this plot provides the rate constant ‘k’.
The IGF^B16B17 derivative peptide prodrugs were incubated in PBS, pH 7.4 at 37° C. and at predetermined time intervals an aliquot was taken and further degredation was quenched with 0.1% TFA and the aliquot was subjected to analytical HPLC analysis.

[3] = Rate of model dipeptide cleavage in PBS (model hexapeptide); details: Table 2, dipeptide on side chain of N-terminal para-amino-Phe of HSRGTF-NH2
Procedure: The rate of cleavage was determined for the respective propeptides. The concentrations of the propeptides and the model parent peptide were determined by their respective peak areas. […] The slope of this plot provides the rate constant ‘k’.

[4] = molecular target: T2, IGF-1 receptor (Homo sapiens, UniProt P08069); experiment: IGF-1 receptor competition binding assay (scintillation proximity); details: Table 9
T2 construct: expressed in transfected cells; plasma membrane fragments
T2 sequence (P08069 31-736 limits assumed): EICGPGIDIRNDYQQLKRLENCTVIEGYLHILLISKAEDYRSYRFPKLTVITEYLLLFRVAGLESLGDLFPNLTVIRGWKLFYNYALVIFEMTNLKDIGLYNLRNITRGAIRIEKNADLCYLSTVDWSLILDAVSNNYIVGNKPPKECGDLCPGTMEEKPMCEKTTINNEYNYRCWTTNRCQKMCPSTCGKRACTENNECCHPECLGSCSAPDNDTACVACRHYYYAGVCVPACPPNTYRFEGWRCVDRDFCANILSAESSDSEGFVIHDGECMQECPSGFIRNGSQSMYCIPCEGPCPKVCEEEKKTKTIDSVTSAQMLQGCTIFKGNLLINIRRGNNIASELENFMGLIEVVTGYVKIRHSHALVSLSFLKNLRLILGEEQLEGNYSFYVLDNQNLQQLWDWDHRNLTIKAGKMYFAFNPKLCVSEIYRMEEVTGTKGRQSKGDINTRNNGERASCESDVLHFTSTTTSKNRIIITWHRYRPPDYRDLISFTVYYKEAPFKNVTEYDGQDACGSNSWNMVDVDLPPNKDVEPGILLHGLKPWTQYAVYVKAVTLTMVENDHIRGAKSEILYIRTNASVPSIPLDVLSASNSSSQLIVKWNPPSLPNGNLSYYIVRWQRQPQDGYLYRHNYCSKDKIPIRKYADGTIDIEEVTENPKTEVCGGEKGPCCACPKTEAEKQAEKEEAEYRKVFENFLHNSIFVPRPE
T2 sequence (P08069 741-1367 limits assumed): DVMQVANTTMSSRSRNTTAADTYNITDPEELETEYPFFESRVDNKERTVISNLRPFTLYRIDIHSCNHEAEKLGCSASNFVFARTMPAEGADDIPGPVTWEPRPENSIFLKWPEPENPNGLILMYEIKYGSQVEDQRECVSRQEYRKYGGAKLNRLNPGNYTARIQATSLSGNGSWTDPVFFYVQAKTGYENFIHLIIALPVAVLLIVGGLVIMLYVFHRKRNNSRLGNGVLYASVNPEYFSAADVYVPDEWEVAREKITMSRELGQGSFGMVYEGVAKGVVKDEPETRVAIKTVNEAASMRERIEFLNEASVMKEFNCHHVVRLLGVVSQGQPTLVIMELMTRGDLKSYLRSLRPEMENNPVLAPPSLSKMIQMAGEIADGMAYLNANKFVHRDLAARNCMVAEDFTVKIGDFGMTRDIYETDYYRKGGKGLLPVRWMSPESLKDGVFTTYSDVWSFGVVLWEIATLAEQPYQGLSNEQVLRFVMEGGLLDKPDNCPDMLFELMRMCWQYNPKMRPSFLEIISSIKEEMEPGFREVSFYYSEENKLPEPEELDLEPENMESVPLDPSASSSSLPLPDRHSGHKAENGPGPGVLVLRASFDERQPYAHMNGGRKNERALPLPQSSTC

[5] = cited from earlier work
[6] = in vivo; cited from earlier work
[7] = cited from earlier work; remark: listed apart in the source

CC[C@H](C)[C@H](NC(=O)CN)C(=O)N[C@H](C(=O)N[C@@H](CC(=O)O)C(=O)N[C@@H](CCC(=O)O)C(=O)N[C@H]1CSSC[C@@H]2NC(=O)[C@H](CO)NC(=O)[C@H](CCCNC(=N)N)NC(=O)[C@H](Cc3ccccc3)NC(=O)[C@H](CSSC[C@H](NC(=O)[C@H](CC(C)C)NC(=O)[C@@H](NC(=O)[C@H](CCC(=O)O)NC(=O)[C@@H]3CCCN3C(=O)CN)[C@@H](C)O)C(=O)NCC(=O)N[C@@H](CO)C(=O)N[C@@H](Cc3c[nH]cn3)C(=O)N[C@@H](CC(C)C)C(=O)N[C@@H](C(C)C)C(=O)N[C@@H](CCC(=O)O)C(=O)N[C@@H](C)C(=O)N[C@@H](CC(C)C)C(=O)N[C@@H](Cc3ccc(O)cc3)C(=O)N[C@@H](CC(C)C)C(=O)N[C@@H](C(C)C)C(=O)N[C@H](C(=O)NCC(=O)N[C@@H](CC(=O)O)C(=O)N[C@@H](CCCNC(=N)N)C(=O)NCC(=O)N[C@@H](Cc3ccccc3)C(=O)N[C@@H](Cc3ccc(O)cc3)C(=O)N[C@@H](Cc3ccccc3)C(=O)N[C@@H](CC(N)=O)C(=O)N[C@@H](CCCCN)C(=O)N3CCC[C@H]3C(=O)N[C@H](C(N)=O)[C@@H](C)O)CSSC[C@@H](C(=O)N[C@@H](C)C(N)=O)NC(=O)[C@H](Cc3ccc(O)cc3)NC(=O)[C@H](CCSC)NC(=O)[C@H](CCC(=O)O)NC(=O)[C@H](CC(C)C)NC(=O)[C@H](CCCNC(=N)N)NC(=O)[C@H](CCCNC(=N)N)NC(=O)[C@H](CC(C)C)NC(=O)[C@H](CC(=O)O)NC2=O)NC1=O)C(C)C
Ratio [1]: 82.6

CC[C@H](C)[C@H](NC(=O)CN)C(=O)N[C@H](C(=O)N[C@@H](CC(=O)O)C(=O)N[C@@H](CCC(=O)O)C(=O)N[C@@H](C)C(=O)N[C@@H](C)C(=O)N[C@@H](Cc1ccccc1)C(=O)N[C@@H](CCCNC(=N)N)C(=O)N[C@@H](CO)C(=O)N[C@@H](C)C(=O)N[C@@H](CC(=O)O)C(=O)N[C@@H](CC(C)C)C(=O)N[C@@H](CCCNC(=N)N)C(=O)N[C@@H](CCCNC(=N)N)C(=O)N[C@@H](CC(C)C)C(=O)N[C@@H](CCC(=O)O)C(=O)N[C@@H](CCSC)C(=O)N[C@@H](Cc1ccc(NC(=O)[C@@H]2CCCN2C(=O)C(C)(C)N)cc1)C(=O)N[C@@H](C)C(=O)N[C@@H](C)C(N)=O)C(C)C [AiB Pro] (HELM PEPTIDE1{G.I.V.D.E.A.A.F.R.S.A.D.L.R.R.L.E.M.[O=C([C@H](Cc1ccc(N[*:3])cc1)N[*:1])[*:2]].A.A.[am]}|PEPTIDE2{[Aib].P}$PEPTIDE1,PEPTIDE2,19:R3-2:R2$$$V2.0)
dipeptide cleavage / conversion to active form (in words) [2]: spontaneous, non-enzymatic conversion

C[C@@H](O)[C@H](NC(=O)CNC(=O)[C@H](CCCNC(=N)N)NC(=O)[C@H](CO)NC(=O)[C@H](Cc1c[nH]cn1)NC(=O)[C@@H](N)Cc1ccc(NC(=O)CNC(=O)CN)cc1)C(=O)N[C@@H](Cc1ccccc1)C(N)=O [Compound 18]
t1/2 (result in words) [3]: No cleavage

C[C@@H](O)[C@H](NC(=O)CNC(=O)[C@H](CCCNC(=N)N)NC(=O)[C@H](CO)NC(=O)[C@H](Cc1c[nH]cn1)NC(=O)[C@@H](N)Cc1ccc(NC(=O)CNC(=O)CO)cc1)C(=O)N[C@@H](Cc1ccccc1)C(N)=O [Compound 19]
t1/2 (result in words) [3]: No cleavage

CC[C@H](C)[C@H](NC(=O)CN)C(=O)N[C@H](C(=O)N[C@@H](CC(=O)O)C(=O)N[C@@H](CCC(=O)O)C(=O)N[C@H]1CSSC[C@@H]2NC(=O)[C@H](CO)NC(=O)[C@H](CCCNC(=N)N)NC(=O)[C@H](Cc3ccccc3)NC(=O)[C@H](CSSC[C@H](NC(=O)[C@H](CC(C)C)NC(=O)[C@H](Cc3c[nH]cn3)NC(=O)[C@H](CCC(=O)O)NC(=O)[C@@H]3CCCN3C(=O)CN)C(=O)NCC(=O)N[C@@H](C)C(=O)N[C@@H](CC(=O)O)C(=O)N[C@@H](CC(C)C)C(=O)N[C@@H](C(C)C)C(=O)N[C@@H](CC(=O)O)C(=O)N[C@@H](C)C(=O)N[C@@H](CC(C)C)C(=O)N[C@@H](Cc3ccc(O)cc3)C(=O)N[C@@H](CC(C)C)C(=O)N[C@@H](C(C)C)C(=O)N[C@H](C(=O)NCC(=O)N[C@@H](CC(=O)O)C(=O)N[C@@H](CCCNC(=N)N)C(=O)NCC(=O)N[C@@H](Cc3ccccc3)C(=O)N[C@@H](Cc3ccc(O)cc3)C(N)=O)CSSC[C@@H](C(=O)N[C@@H](C)C(N)=O)NC(=O)[C@H](Cc3ccc(O)cc3)NC(=O)[C@H](CC[S+](C)[O-])NC(=O)[C@H](CCC(=O)O)NC(=O)[C@H](CC(C)C)NC(=O)[C@H](CCCNC(=N)N)NC(=O)[C@H](CCCNC(=N)N)NC(=O)[C@H](CC(C)C)NC(=O)[C@H](CC(=O)O)NC2=O)NC1=O)C(C)C (stereo partly shown) [IGF-1 A:B (H5D10Y16L17) (S═O)DPI]
IC50 ([1]; read-out: Insulin Receptor nM IC50:): 0.25 nM

CC[C@H](C)[C@H](NC(=O)CN)C(=O)N[C@H](C(=O)N[C@@H](CC(=O)O)C(=O)N[C@@H](CCC(=O)O)C(=O)N[C@H]1CSSC[C@@H]2NC(=O)[C@H](CO)NC(=O)[C@H](CCCNC(=N)N)NC(=O)[C@H](Cc3ccccc3)NC(=O)[C@H](CSSC[C@H](NC(=O)[C@H](CC(C)C)NC(=O)[C@@H](NC(=O)[C@H](CCC(=O)O)NC(=O)[C@@H]3CCCN3C(=O)CN)[C@@H](C)O)C(=O)NCC(=O)N[C@@H](C)C(=O)N[C@@H](CCC(=O)O)C(=O)N[C@@H](CC(C)C)C(=O)N[C@@H](C(C)C)C(=O)N[C@@H](CC(=O)O)C(=O)N[C@@H](C)C(=O)N[C@@H](CC(C)C)C(=O)N[C@@H](Cc3ccc(O)cc3)C(=O)N[C@@H](CC(C)C)C(=O)N[C@@H](C(C)C)C(=O)N[C@H](C(=O)NCC(=O)N[C@@H](CC(=O)O)C(=O)N[C@@H](CCCNC(=N)N)C(=O)NCC(=O)N[C@@H](Cc3ccccc3)C(=O)N[C@@H](Cc3ccc(O)cc3)C(=O)N[C@@H](Cc3ccccc3)C(=O)N[C@@H](CC(N)=O)C(=O)N[C@@H](CCCCN)C(=O)N3CCC[C@H]3C(=O)N[C@H](C(N)=O)[C@@H](C)O)CSSC[C@@H](C(=O)N[C@@H](C)C(N)=O)NC(=O)[C@H](Cc3ccc(O)cc3)NC(=O)[C@H](CCSC)NC(=O)[C@H](CCC(=O)O)NC(=O)[C@H](CC(C)C)NC(=O)[C@H](CCCNC(=N)N)NC(=O)[C@H](CCCNC(=N)N)NC(=O)[C@H](CC(C)C)NC(=O)[C@H](CC(=O)O)NC2=O)NC1=O)C(C)C [IGF-1 A:B(E10Y16L17)]
pIC50 ([4]; IGF-1 Receptor IC50:): 7.91

CC[C@H](C)[C@H](NC(=O)CN)C(=O)N[C@H](C(=O)N[C@@H](CC(=O)O)C(=O)N[C@@H](CCC(=O)O)C(=O)N[C@H]1CSSC[C@@H]2NC(=O)[C@H](CO)NC(=O)[C@H](CCCNC(=N)N)NC(=O)[C@H](Cc3ccccc3)NC(=O)[C@H](CSSC[C@H](NC(=O)[C@H](CC(C)C)NC(=O)[C@H](Cc3c[nH]cn3)NC(=O)[C@H](CCC(N)=O)NC(=O)[C@H](CC(N)=O)NC(=O)[C@@H](NC(=O)[C@@H](N)Cc3ccccc3)C(C)C)C(=O)NCC(=O)N[C@@H](CO)C(=O)N[C@@H](Cc3c[nH]cn3)C(=O)N[C@@H](CC(C)C)C(=O)N[C@@H](C(C)C)C(=O)N[C@@H](CCC(=O)O)C(=O)N[C@@H](C)C(=O)N[C@@H](CC(C)C)C(=O)N[C@@H](Cc3ccc(O)cc3)C(=O)N[C@@H](CC(C)C)C(=O)N[C@@H](C(C)C)C(=O)N[C@H](C(=O)NCC(=O)N[C@@H](CC(=O)O)C(=O)N[C@@H](CCCNC(=N)N)C(=O)NCC(=O)N[C@@H](Cc3ccccc3)C(=O)N[C@@H](Cc3ccc(O)cc3)C(=O)N[C@@H](Cc3ccccc3)C(=O)N[C@@H](CC(N)=O)C(=O)N[C@@H](CCCCN)C(=O)N3CCC[C@H]3C(=O)N[C@H](C(N)=O)[C@@H](C)O)CSSC[C@@H](C(=O)N[C@@H](C)C(N)=O)NC(=O)[C@H](Cc3ccc(O)cc3)NC(=O)[C@H](CCSC)NC(=O)[C@H](CCC(=O)O)NC(=O)[C@H](CC(C)C)NC(=O)[C@H](CCCNC(=N)N)NC(=O)[C@H](CCCNC(=N)N)NC(=O)[C@H](CC(C)C)NC(=O)[C@H](CC(=O)O)NC2=O)NC1=O)C(C)C [IGF-1 A:In (1-17)-IGF-1 B (18-30)]
Insulin Receptor % insulin (in test) [1]: 14.0% and 11.3% and 20.1% | Ratio [1]: 22.6 | Insulin Receptor % native insulin activity (0.6 nM) ([1]; relative to 0.6 nM): 21.7% and 22.5% and 24.2% | IGF-1 Receptor % IGF-1 (in test) [4]: 0.9%

[GlyA21, ArgB31, ArgB32]insulin
IGF-1 affinity (in words) [5]: enhanced IGF-1 affinity

[LysB29-tetradecanoyl, des(B30)]insulin
plasma half life (in words) [6]: increased plasma half life | potency in vivo (in words) [7]: reduced potency in vivo
